“Also recorded” adds a separate entry of the source. Ends that are not written are not given here.
Legend:
[1] = system: microorganisms; test: Targeting peptide binding to target microorganisms (Tables 3, 10, 12); conditions: microorganism(s) the targeting peptide binds; binding in aqueous buffers varied with peptide solubility, preferably 1x PBS
[2] = system: microorganisms; test: Peptide activities: targeting/binding, antimicrobial, growth or phenotype altering (Tables 7, 8); assay type: cell-based; conditions: peptides having multiple activities
[3] = system: microorganisms; test: Morphology, biofilm and growth disrupting peptides (Table 5); assay type: cell-based; set-up: key: A: Peptide aggregates; B: Less hyphal formation; Clumps; Diffuse clumps and small polyps; F: Diffuse growth; H: Thin; I: Growth inhibition; Microcolony formation; Rippled; Small polyps; Thick; W: Halo formation on top, microlonies on bottom
Source text: In certain embodiments peptides that induce alterations in phenotype or other biological activities can also be used as antimicrobial effector moieties.

Substance	Target(s) [1]	Activities [2]	Organism, effect ([3]; MRSA)	Organism, effect ([3]; S. epidermidis)	Organism, effect ([3]; S. pneumoniae)	Organism, effect ([3]; E. coli)	Organism, effect ([3]; E. faecalis)	Organism, effect ([3]; C. jejuni)
PF-430: peptide having multiple activities (chain 1 AVVCGYLAYTATS; chain 2 AVVCGYLAYTATS; Peptide with targeting and/or antimicrobial activity)	S. epidermidis; also recorded: M. luteus; also recorded: E. coli; also recorded: S. pneumoniae; also recorded: E. faecalis; also recorded: C. jeikeium; also recorded: C. jejuni	G B	MRSA (M)	S. epidermidis (M)	S. pneumoniae (M)			
PF-433: peptide having multiple activities (chain 1 MRKEFHNVLSSGQLLADKRPARDYNRK; chain 2 MRKEFHNVLSSGQLLADKRPARDYNRK; Peptide with targeting and/or antimicrobial activity)	S. epidermidis; also recorded: E. coli; also recorded: S. pneumoniae; also recorded: C. jeikeium	G B			S. pneumoniae (H)			
PF-434: peptide having multiple activities (chain 1 GQLLADKRPARDYNRK; chain 2 GQLLADKRPARDYNRK; Peptide with targeting and/or antimicrobial activity)	S. epidermidis; also recorded: M. luteus; also recorded: S. pneumoniae; also recorded: C. jeikeium	G B			S. pneumoniae (S)			
PF-444: peptide having multiple activities (MAAKLWEEGKMVYASSASMTKRLKLAMSKV; Peptide with targeting and/or antimicrobial activity)	M. luteus; also recorded: C. albicans; also recorded: S. pneumoniae; also recorded: C. jeikeium	G B	MRSA (C)	S. epidermidis (C)	S. pneumoniae (R)	E. coli (R)	E. faecalis (C)	
PF-445: peptide having multiple activities (ASMTKRLKLAMSKV; Peptide with targeting and/or antimicrobial activity)	M. luteus; also recorded: S. pneumoniae; also recorded: C. jeikeium	G B			S. pneumoniae (M)			
PF-446: peptide having multiple activities (SGNEKV; Peptide with targeting and/or antimicrobial activity)	M. luteus; also recorded: C. jeikeium	G B			S. pneumoniae (H)			
PF-447: peptide having multiple activities (IDKSRNKDQFSHIFGLYNICSG; Peptide with targeting and/or antimicrobial activity)	S. epidermidis; also recorded: M. luteus; also recorded: E. coli; also recorded: S. pneumoniae	G B	MRSA (C)	S. epidermidis (C)	S. pneumoniae (C)		E. faecalis (C)	
PF-452: peptide having multiple activities (MNNWIKVAQISVTVINEVIDIMKEKQNGGK; Peptide with targeting and/or antimicrobial activity)	M. luteus; also recorded: P. aeruginosa; also recorded: C. albicans; also recorded: S. pneumoniae; also recorded: E. faecalis; also recorded: C. jeikeium; also recorded: M. smegmatis	G B	MRSA (C)	S. epidermidis (C)	S. pneumoniae (R)	E. coli (C)	E. faecalis (C)	
PF-453: peptide having multiple activities (IIQDIAHAFGY; Peptide with targeting and/or antimicrobial activity)	M. luteus; also recorded: E. coli; also recorded: P. aeruginosa; also recorded: S. pneumoniae; also recorded: E. faecalis; also recorded: C. jeikeium; also recorded: C. jejuni	G B	MRSA (C)	S. epidermidis (C)	S. pneumoniae (C)	E. coli (C)		
PF-456: peptide having multiple activities (TCVKPRTIN; Peptide with targeting and/or antimicrobial activity)	C. albicans and MRSA and E. faecalis and C. jeikeium and C. jejuni	G B					E. faecalis (A)	C. jejuni (A)
PF-457: peptide having multiple activities (INKYHHIA; Peptide with targeting and/or antimicrobial activity)	C. albicans; also recorded: S. pneumoniae; also recorded: E. faecalis; also recorded: C. jeikeium	G B			S. pneumoniae (M)			
PF-459: peptide having multiple activities (EKRMSFNENQSHRPLL; Peptide with targeting and/or antimicrobial activity)	P. aeruginosa	G B			S. pneumoniae (H)			
PF-462: peptide having multiple activities (KNKTDTL; Peptide with targeting and/or antimicrobial activity)	E. faecalis; also recorded: C. jeikeium	G B			S. pneumoniae (H)			
PF-464: peptide having multiple activities (VDMVNRFLGN; Peptide with targeting and/or antimicrobial activity)	S. epidermidis and C. albicans and MRSA and S. pneumoniae and E. faecalis and C. jeikeium and C. jejuni	G B			S. pneumoniae (S)			
PF-466: peptide having multiple activities (VRKSDQ; Peptide with targeting and/or antimicrobial activity)	MRSA and C. jeikeium and C. jejuni	G B			S. pneumoniae (H)			
PF-467: peptide having multiple activities (YYKDYFKEI; Peptide with targeting and/or antimicrobial activity)	MRSA and E. faecalis and C. jeikeium and C. jejuni	G B			S. pneumoniae (H)			
PF-470: peptide having multiple activities (PYSDSYATRPHWEQHRAR; Peptide with targeting and/or antimicrobial activity)	M. luteus and E. coli and MRSA and E. faecalis and C. jeikeium and C. jejuni	G B					E. faecalis (A)	C. jejuni (A)
PF-476: peptide having multiple activities (WADAQYKLCENCSE; Peptide with targeting and/or antimicrobial activity)	M. luteus; also recorded: P. mirabilis; also recorded: C. albicans; also recorded: S. pneumoniae; also recorded: E. faecalis; also recorded: C. jeikeium; also recorded: C. jejuni	G B			S. pneumoniae (H)			
PF-484: peptide having multiple activities (HKKDIRKQVFKN; Peptide with targeting and/or antimicrobial activity)	S. epidermidis; also recorded: M. luteus; also recorded: P. mirabilis; also recorded: E. coli; also recorded: E. faecalis; also recorded: C. jeikeium; also recorded: C. jejuni	G B					E. faecalis (A)	
PF-513: peptide having multiple activities (SNGVGLGVGIGSGIRF-NH2)	C. albicans	G B			S. pneumoniae (M)			
PF-514: peptide having multiple activities (QRFYKLFYHIDLTNEQALKLFQVK; Peptide with targeting and/or antimicrobial activity)	S. epidermidis and E. coli and P. aeruginosa and C. albicans and MRSA and S. pneumoniae and E. faecalis and C. jeikeium	G B		S. epidermidis (C)	S. pneumoniae (M)	E. coli (R)	E. faecalis (C)	
PF-515: peptide having multiple activities (DKSTQDKDIKQAKLLAQELGL-NH2)	S. epidermidis; also recorded: C. albicans; also recorded: S. pneumoniae; also recorded: C. jeikeium	G B			S. pneumoniae (H)			
PF-517: peptide having multiple activities (VKPTMTASLISTVC; Peptide with targeting and/or antimicrobial activity)	C. jejuni	G B			S. pneumoniae (M)			
PF-518: peptide having multiple activities (SFYSKYSRYIDNLAGAIFLFF; Peptide with targeting and/or antimicrobial activity)	S. epidermidis and E. coli and P. aeruginosa and C. albicans and MRSA and S. pneumoniae and E. faecalis	G B	MRSA (C)	S. epidermidis (C)	S. pneumoniae (M)	E. coli (R)	E. faecalis (C)	
PF-519: peptide having multiple activities (YLVYSGVLATAAAF-NH2)	M. luteus; also recorded: E. faecalis; also recorded: C. jeikeium	G B	MRSA (C)		S. pneumoniae (S)	E. coli (R)	E. faecalis (C)	

Reference: patent US20110039763A1, “TARGETED ANTIMICROBIAL MOIETIES” (C3 JIAN, INC., priority 2009, published 2011)
